# Laboratory results taken from patent publication US11225657B2, “Synthetic auxotrophs with ligand dependent essential genes for biosafety” (priority 2015, dated 2022).
# Key:
# Format in all cases: cell-based, E. coli
# [1] = system: metG.GL15; experiment: Chemical complementation of growth of ligand-dependent strain metG.GL15; details: panel of 30 additional ligands
# Method: (§1) A second positive selection at block 140 was performed in order to enrich for desirable ligand-dependent strains. Library members surviving the negative selection were collected, residual penicillin was washed away, and cells were spread onto LB agar plates containing complementing chemicals. Resulting colonies were screened at block 150 for ligand-dependent growth by replica-spotting onto LB agar plates with and without complementing chemicals. Strains that grew only in the presence of chemicals were chosen for further characterization.
# (§2) In this example, the ligand-dependent strains were generated for 5 essential genes (pheS, dnaN, tyrS, metG, and adk). Each ligand-dependent strain carried between 3 and 7 mutations at the targeted essential gene (Table 1). A mixture of 4 small molecules was used to generate the ligand-dependent strains. Each resulting strain was tested against each small molecule individually. The most promiscuous strain, metG.GL15, was complemented by all 4 ligands. Other mutants responded to 2 or 3 ligands. Additionally, escape frequency was measured on media lacking any of the 4 ligands. The highest escape frequency was 8×10^−4 for adk.GL1, while the lowest escape frequency was 3×10^−9 for pheS.GL2.
# To characterize the specificity of the produced ligand-dependent strains towards ligands, all strains were examined for complementation by a panel of 30 additional ligands. […]
# [2] = system: pheS.GL2; experiment: Chemical complementation of growth of ligand-dependent strain pheS.GL2; details: LB agar plates
# Method: as §1, §2
# The ligand-dependent strain pheS.GL2 was derived from a directed evolution procedure using both targeted and random mutagenesis. […]
# [3] = system: dnaN-intein-iFKBP fusion mutants; experiment: Growth of dnaN-intein-iFKBP mutants with complementing ligands at 42° C.; details: LB agar
# Method: A variety of saturation mutagenesis libraries targeting a combination of surface exposed and semi-buried residues on the intein structure were then designed, ignoring the iFKBP domain as well as the dnaN sequence. The resulting plasmid library was then transformed into dnaN-temperature sensitive strains (dnaN-temp sensitive on the genome). The resulting transformants were grown on LB agar plates containing 5 chemicals: rapamycin, saccharin, acetaminophen, raspberry ketone, and benzothiazole. These chemicals were chosen based on being either useful commercially or likely to result in the desired phenotype. As before the library was grown at 42° C. so that the strains would have to rely on the plasmid borne mutagenized copies of the dnaN-intein-iFKBP fusion proteins.
# The next day the libraries were scraped, and transferred to fresh media for a penicillin technique counter selection performed exactly as described before with FIG. 2 and FIG. 3. After the negative selection, intact cells were mini-prepped and the DNA was re-transformed into fresh cells and the transformants were grown on the same chemicals as indicated above at 42° C.
# The next day, colonies were picked, serially diluted tenfold and spotted onto plain LB agar plates and LB agar plates containing a pool of candidate complementing ligands and grown at 42° C. (to uncover phenotype of plasmid born copy of dnaN). […]
# [4] = system: rapamycin-dependent mutant (uniRapR insertion in dnaN); experiment: Ligand-dependent growth of rapamycin-dependent dnaN-uniRapR insertion mutant at 42° C.; details: for nonspecific chemical complementation (growth): plates with ligand instead of rapamycin
# Text: Starting with a plasmid borne copy of wild type dnaN under constitutive expression, the uniRapR domain was inserted into 4 candidate insertion sites with a 3 amino acid linker library upstream and downstream of the uniRapR domain. The resulting libraries (all four insertion sites with their linker libraries) were pooled and transformed into a strain of E. coli with a mutation on the genomic copy of dnaN that made the protein temperature sensitive (dnaN protein from genome is non-functional at 42° C. and it is bactericidal lethal).
# The transformants were grown at 42° C. (lethal temperature for genomic copy so as to force bacteria to rely on the plasmid copies with the uniRapR insertions) as well as with the addition of 10 uM rapamycin (to complement the function of any rapamycin-dependent insertional fusion dnaN mutants) and allowed to grow overnight.
# The extracted plasmid DNA was re-transformed into fresh dnaN-temperature sensitive strains and grown on LB agar supplemented with rapamycin at 42° C. The next day colonies were picked and re-spotted onto LB agar plates with or without rapamycin and grown at 42° C. […] The biological replicates of a 10-fold serial dilution of the rapamycin-dependent mutant grown without rapamycin (clear columns) or with 2.5 micromolar rapamycin (columns with growth) were prepared. All growth took place at 42° C.
# [5] = system: tyrS.GL7; experiment: Chemical complementation of growth of ligand-dependent strain tyrS.GL7
# Method: as §1, §2
# The ligand-dependent strain tyrS.GL7 and metG.GL15 were generated in under 2 weeks with a single cycle of protein engineering. […]
smiles,measurement,setting,value
O=C(O)Cc1c[nH]c2ccccc12 [Indole-3-acetic acid],complementation of growth,[1],complement
COC(=O)[C@@H](N)Cc1c[nH]cn1 [L-histidine methyl ester],complementation of growth,[1],complement
c1ccc2scnc2c1 [benzothiazole],complementation of growth,[2]; 1 mM benzothiazole,strongly complemented
same,colony size relative to no ligand (by eye),[3],2-5 times
same,nonspecific chemical complementation (growth),[4],no growth was detected
same,concentration range of dose-dependent growth,[5],250 to 1000 µM
c1ccc2[nH]ccc2c1 [indole],complementation of growth,[2]; 0.5 mM indole,strongly complemented
same,nonspecific chemical complementation (growth),[4],no growth was detected
same,complementation of growth,[5],complemented
CO[C@H]1C[C@@H]2CC[C@@H](C)[C@@](O)(O2)C(=O)C(=O)N2CCCC[C@H]2C(=O)O[C@H]([C@H](C)C[C@@H]2CC[C@@H](O)[C@H](OC)C2)CC(=O)[C@H](C)/C=C(\C)[C@@H](O)[C@@H](OC)C(=O)[C@H](C)C[C@H](C)/C=C/C=C/C=C/1C [rapamycin],rapamycin concentration of highest activity (dose-dependent growth),[4]; 42° C.,1 to 10 µM
